{"source": "paper PMC5722316", "about": "“Synthesis of novel purpurealidin analogs and evaluation of their effect on the cancer-relevant potassium channel KV10.1” (PLoS ONE, 2017)", "key": {"[1]": {"test_system": "Xenopus oocytes", "assay": "48-h incubation of Xenopus oocytes, oocyte quality", "format": "cell-based, Xenopus laevis", "conditions": "10 μM", "from_the_text": "A dose-dependent antiproliferative and cytotoxic effect was not only observed on the KV10.1-expressing cells but also on the control cell lines."}, "[2]": {"test_system": "MDA-MB-435S", "assay": "Proliferation assay (IncuCyte live-cell imaging, cell confluency)", "format": "cell-based", "conditions": "Homo sapiens, indicative, from AUC vs concentration (2-100 μM), read-out: Antiproliferative effect (IC50)", "experimental": "(§1) Cell lines SH-SY5Y (ACC 209), DU145 (ACC 261), LNCaP (ACC 256) and NIH-3T3 (ACC 59) were purchased from DSMZ (Germany). MDA-MB-435S (HTB 129) and hTERT RPE-1 (CRL 4000) were obtained from ATCC (USA). Cell lines were cultured in their recommended media Supplemented with 10% or 15% FCS (PAA laboratories, Germany) at 37°C in humidified 5% CO2 atmosphere. All media were purchased from ThermoFisher Scientific (Waltham, Massachusetts, United States).\n(§2) Cell proliferation, cytotoxicity and apoptosis were assessed in a 96-well microtiter plate by live-cell imaging using an IncuCyte Zoom System (Essen BioScience, UK). Cell proliferation was monitored in terms of cell confluency (%). Cell cytotoxicity was assessed by the CellTox Green Dye assay (Promega, Madison, Wisconsin, USA). The Incucyte Caspase-3/7 apoptosis assay (Essen BioScience, UK) was used to evaluate the effect of compound 5 on the apoptotic pathway. As negative controls media supplemented with 0.05% of DMSO were used.\n(§3) Live-cell imaging data were collected from the IncuCyte Zoom software and analyzed using GraphPad Prism 5 software. Proliferation was measured as Phase Object Confluence (%), cytotoxicity and apoptosis were measured as Green Object Count (1/mm^2). All data are represented as mean S.E.M of n = 6 different wells.\n(§4) The following concentrations of compound 5 were added to the different cell lines, 100 μM, 50 μM, 20 μM, 10 μM, 5 μM and 2 μM to assess its effect on cell proliferation (S1 Fig) and cytotoxicity (S2 Fig). Indicative IC50-values for the proliferation assays were obtained by plotting the areas under the curve (AUC × 10^3) against the tested compound 5 concentrations and by fitting the curve with a logistic dose-response equation. The EC50-values for the cytotoxicity assays were calculated correspondingly (S3 Fig). Although more data points would be necessary to calculate precise IC50 and EC50-values, it is clear that compound 5 inhibits the proliferation and induces cytotoxicity in all the tested cell lines in the low to middle micromolar range."}, "[3]": {"test_system": "hTERT RPE-1", "assay": "Proliferation assay (IncuCyte live-cell imaging, cell confluency)", "format": "cell-based", "conditions": "Homo sapiens, hTERT-RPE1, indicative, from AUC vs concentration (2-100 μM), read-out: Antiproliferative effect (IC50)", "experimental": "as §1, §2, §3, §4"}, "[4]": {"test_system": "SH-SY5Y", "assay": "Proliferation assay (IncuCyte live-cell imaging, cell confluency)", "format": "cell-based", "conditions": "Homo sapiens, indicative, from AUC vs concentration (2-100 μM), read-out: Antiproliferative effect (IC50)", "experimental": "as §1, §2, §3, §4"}, "[5]": {"test_system": "DU145", "assay": "Proliferation assay (IncuCyte live-cell imaging, cell confluency)", "format": "cell-based", "conditions": "Homo sapiens, DU-145, indicative, from AUC vs concentration (2-100 μM), read-out: Antiproliferative effect (IC50)", "experimental": "as §1, §2, §3, §4"}, "[6]": {"test_system": "LNCAP", "assay": "Proliferation assay (IncuCyte live-cell imaging, cell confluency)", "format": "cell-based", "conditions": "Homo sapiens, indicative, from AUC vs concentration (2-100 μM), read-out: Antiproliferative effect (IC50)", "experimental": "as §1, §2, §3, §4"}, "[7]": {"test_system": "NIH-3T3", "assay": "Proliferation assay (IncuCyte live-cell imaging, cell confluency)", "format": "cell-based", "conditions": "Mus musculus, NIH3T3, indicative, from AUC vs concentration (2-100 μM), read-out: Antiproliferative effect (IC50)", "experimental": "as §1, §2, §3, §4"}, "[8]": {"molecular_target": "T1, hKV10.1a (Homo sapiens, UniProt O95259)", "T1 construct": "expressed in transfected cells; host or cells: Xenopus laevis oocytes injected with cRNA transcribed from the hKV10.1a-pSGEM plasmid", "T1 sequence (O95259 1-962 isoform O95259-2)": "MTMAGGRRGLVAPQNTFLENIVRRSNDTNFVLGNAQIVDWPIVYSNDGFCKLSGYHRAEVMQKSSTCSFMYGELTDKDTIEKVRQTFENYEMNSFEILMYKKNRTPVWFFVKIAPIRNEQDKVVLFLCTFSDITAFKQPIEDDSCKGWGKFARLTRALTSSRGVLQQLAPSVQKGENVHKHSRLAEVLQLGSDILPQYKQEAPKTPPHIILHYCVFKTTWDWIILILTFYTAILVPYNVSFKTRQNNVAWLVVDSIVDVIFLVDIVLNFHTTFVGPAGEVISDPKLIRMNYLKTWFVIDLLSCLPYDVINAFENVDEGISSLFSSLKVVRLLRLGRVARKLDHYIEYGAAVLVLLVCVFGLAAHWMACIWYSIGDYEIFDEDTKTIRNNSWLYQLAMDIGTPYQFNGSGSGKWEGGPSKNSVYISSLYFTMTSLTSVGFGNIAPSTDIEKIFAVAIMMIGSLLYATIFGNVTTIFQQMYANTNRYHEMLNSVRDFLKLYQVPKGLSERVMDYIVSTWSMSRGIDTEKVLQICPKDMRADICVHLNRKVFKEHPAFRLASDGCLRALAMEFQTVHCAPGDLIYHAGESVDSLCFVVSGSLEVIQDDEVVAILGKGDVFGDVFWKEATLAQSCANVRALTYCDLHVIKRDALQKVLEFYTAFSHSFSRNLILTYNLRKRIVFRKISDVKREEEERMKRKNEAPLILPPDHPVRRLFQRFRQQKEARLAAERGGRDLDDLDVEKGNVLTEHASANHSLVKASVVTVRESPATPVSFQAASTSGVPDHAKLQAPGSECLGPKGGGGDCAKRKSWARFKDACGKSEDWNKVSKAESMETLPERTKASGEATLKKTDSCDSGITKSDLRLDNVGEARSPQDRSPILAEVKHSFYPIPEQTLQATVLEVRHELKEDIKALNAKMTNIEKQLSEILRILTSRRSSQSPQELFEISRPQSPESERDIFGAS", "assay": "Two-electrode voltage-clamp recordings of KV10.1 currents in Xenopus laevis oocytes", "format": "cell-based"}, "[9]": {"assay": "Cytotoxicity assay (CellTox Green Dye, IncuCyte)", "format": "cell-based", "conditions": "indicative, from AUC vs concentration (2-100 μM), read-out: Cytotoxic effect (EC50)", "experimental": "as §1, §2, §3, §4"}, "[10]": {"test_system": "SH-SY5Y, DU145, LNCaP, NIH-3T3, MDA-MB-435S and hTERT RPE-1 cell lines", "assay": "Incucyte Caspase-3/7 apoptosis assay", "format": "cell-based", "conditions": "100 μM, 50 μM and 20 μM; all the cell lines", "experimental": "as §1, §2\nas §3, with “wells. […]” for “wells.”"}}, "note": "pEC50, pIC50: −log10 of the molar value. Read-outs that look alike come from different tables or passages of the source."}
{"smiles": "COc1ccc(C(=O)NCCc2cc(Br)c(OCCCN(C)C)c(Br)c2)cc1Cl", "note": "[Compound 5, 3-Chloro-N-[3,5-dibromo-4-[3-(dimethylamino)propoxy]phenethyl]-4-methoxybenzamide]", "values": [{"measurement": "oocyte quality (visual and electrophysiological observation)", "setting": "[1]", "value": "did not result in noticeable deterioration of the oocyte quality"}, {"measurement": "pIC50", "setting": "[2]", "value": 4.55}, {"measurement": "pIC50", "setting": "[3]", "value": 4.90}, {"measurement": "pIC50", "setting": "[4]", "value": 4.91}, {"measurement": "pIC50", "setting": "[5]", "value": 4.54}, {"measurement": "pIC50", "setting": "[6]", "value": 4.58}, {"measurement": "pIC50", "setting": "[7]", "value": 5.15}, {"measurement": "time constant (τ) of current decrease on open channels", "setting": "[8]; 10 μM added during 20-s continuous step to 30 mV, no P/4 leak subtraction", "value": "~ 1.4 s"}, {"measurement": "shift of activation curve (ΔV1/2) to more negative potentials", "setting": "[8]; 10 μM, HK solution ([K+]e = 96 mM), Boltzmann fit", "value": "14.8 ± 2.1", "unit": "mV"}, {"measurement": "half-maximal voltage of activation (V1/2) in presence of compound", "setting": "[8]; 10 μM, HK solution ([K+]e = 96 mM), control V1/2 = 39.3 ± 1.7 mV", "value": "24.5 ± 1.3", "unit": "mV"}, {"measurement": "slope factor k of activation curve in presence of compound", "setting": "[8]; 10 μM, HK solution, control k = 15.7 ± 0.9", "value": "14.5± 1.0"}, {"measurement": "pEC50", "setting": "[9]; human, DU145 cells", "value": 4.22}, {"measurement": "pEC50", "setting": "[9]; human, LNCaP cells", "value": 4.39}, {"measurement": "pEC50", "setting": "[9]; human, MDA-MB-435S cells", "value": 4.78}, {"measurement": "pEC50", "setting": "[9]; human, SH-SY5Y cells", "value": 4.82}, {"measurement": "pEC50", "setting": "[9]; human, hTERT RPE-1 cells", "value": 4.81}, {"measurement": "pEC50", "setting": "[9]; mouse, NIH-3T3 cells", "value": 5.34}, {"measurement": "caspase-3/7 activity (induction of the apoptotic pathway)", "setting": "[10]", "value": "caspase-3/7 activity was detected"}]}
